According to patent US8815900B2, “Compounds and compositions for reducing lipid levels” (CVI Pharmaceuticals Limited, priority 2007, dated 2014):

Legend:
[1] = test system: LDLR mRNA expression in HepG2 cells; assay: LDLR mRNA expression in HepG2 cells, quantitative real-time RT-PCR; assay type: cell-based, Human; details: 24 hours, indicated concentrations (FIG. 19A)
Procedure: In yet another experiment, HepG2 cells were treated with various compounds for 24 hours at the indicated doses. Total RNA was isolated and 2 μg was used to generate cDNA in a reaction containing random primers and M-MLV at 37° C. for 1 hour in a volume of […] Real-time PCR was performed on the cDNA using MCEP REALPLEX 2 SYSTEM (Eppendorf) and Universal MasterMix (Applied Biosystems). Human LDLR and GAPDH Pre-Developed TaqMan Assay Reagents (Applied Biosystems) were used to assess the levels of mRNA expressions in HepG2. The levels of LDLR mRNA were normalized to that of GAPDH. Each RNA samples was assayed in triplicate. The abundance of LDLR mRNA in untreated cells was defined as 1, and the amounts of LDLR mRNA from compound-treated cells were plotted relative to that value in FIG. 13. The data shown are mean±s.d.
Activities of some compounds of Formulas I, II, III, and IV on LDLR mRNA expression were determined. HepG2 cells were treated with new compounds individually at a dose less than or equal to 10 μM for 24 hours. Total RNA was harvested for quantitative real-time RT-PCR analysis using the method described in Example 16B. […] In these experiments, berberine chloride was included for comparison.
Quantitative real-time RT-PCR was conducted, and triplicate was assayed in each RNA sample. The data are mean value of triplicates.
Total RNA was harvested for quantitative real-time RT-PCR analysis using method described in Examples 16B.

[2] = test system: PCSK9 mRNA expression in HepG2 cells; assay: PCSK9 mRNA expression in HepG2 cells, quantitative real-time RT-PCR; assay type: cell-based, Human; details: 24 hours, indicated concentrations (FIG. 19B)
Procedure: The effects of compounds of Formula I, II, III, and IV on the inhibition of PCSK9 mRNA expression was examined (Horton J D, Cohen J C, Hobbs H H. “Molecular biology of PCSK9: its role in LDL metabolism” TRENDS in Biochemical Sciences 2007; 32:71-77; Cameron J, Ranheim T, Kulseth M A, Leren T P, Berge K E. “Berberine decreases PCSK9 expression in HepG2 cells” Atherosclerosis, 2008 online publication). HepG2 cells were treated with new compounds individually at 10 uM dose for 24 hours. Total RNA was harvested for quantitative real-time RT-PCR analysis using method described in Example 16B. The fold activity was derived by dividing the amount of normalized PCSK9 mRNA in compound-treated cells over the amount of PCSK9 mRNA in untreated control cells. In these experiments, berberine chloride (10 uM) was included for comparison (see FIG. 18).
Total RNA was harvested for quantitative real-time RT-PCR analysis using method described in Examples 16B. The fold activity was derived by dividing the amount of normalized LDLR or PCSK9 mRNA in compound-treated cells over the amount of LDLR or PCSK9 mRNA in untreated control cells.

COc1cc2c(cc1OC)C1Cc3ccc(OC)c(OS(=O)(=O)c4ccccc4)c3CN1CC2 (centres unmarked) [Compound 91, 2,3,10-trimethoxy-5,6,7,8,13,13a-hexahydroiso-quinolino[2,1-b]isoquinolin-9-yl benzenesulfonate]
LDLR mRNA expression [1]: dose-dependently increases
PCSK9 mRNA expression [2]: inhibits
